This passage reports Kd results from article PMC3013012 (The Journal of Biological Chemistry, 2010).

In general, Kd refers to the concentration at which binding is half-saturated. A low value points to a tighter complex.

One assay addresses T1, human Cbx7 chromodomain (Homo sapiens, UniProt O95931).
T1 sequence (O95931 8-62): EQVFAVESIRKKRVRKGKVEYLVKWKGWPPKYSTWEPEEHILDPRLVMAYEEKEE
The assay can be described thus: Fluorescence polarization peptide binding. In general terms: Fluorescence polarisation rises when a labelled molecule tumbles more slowly, as on binding a larger partner.

For the next assay, the target named is T2, human Cbx8 chromodomain (Homo sapiens, UniProt Q9HC52).
T2 sequence (Q9HC52 8-61): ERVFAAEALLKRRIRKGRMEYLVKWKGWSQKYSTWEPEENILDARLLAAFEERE
The assay can be described thus: Fluorescence polarization peptide binding.

Square brackets hold non-standard residues; d marks the D form. Peptide text beside a SMILES is read from it. Lys(Me3) = C[N+](C)(C)CCCC[C@H](N)C(=O)O; Lys(Me2) = CN(C)CCCC[C@H](N)C(=O)O

For the compound `CC[C@H](C)[C@H](NC(=O)CNC(=O)[C@H](Cc1c[nH]cn1)NC(=O)[C@@H](NC(=O)[C@H](CO)NC(=O)[C@H](CCCC[N+](C)(C)C)NC(=O)[C@H](CC(C)C)NC(=O)[C@H](C)NC(=O)[C@H](Cc1ccccc1)NC(=O)CNC(=O)[C@H](CCCNC(=N)N)NC(=O)[C@@H](NC(=O)[C@H](CO)NC(=O)[C@H](CCCC[N+](C)(C)C)NC(=O)[C@@H](NC(=O)[C@H](C)NC(=O)[C@@H](NC(=O)[C@H](CCC(N)=O)NC(=O)[C@@H](N)CCCNC(=N)N)C(C)C)C(C)C)[C@@H](C)O)[C@@H](C)O)C(=O)N[C@@H](C)C(=O)N[C@H](C(=O)N[C@@H](CCCC[N+](C)(C)C)C(=O)N[C@@H](CO)C(=O)N[C@H](C(=O)N[C@@H](CC(N)=O)C(=O)O)[C@@H](C)O)[C@@H](C)CC` [Kme3(1162,1170,1178)] (H-RQVAV[Lys(Me3)]STRGFAL[Lys(Me3)]STHGIAI[Lys(Me3)]STN-OH), the Kd at human Cbx7 chromodomain came out at 1.2 ± 0.2 µM; at human Cbx8 chromodomain, 6 ± 2 µM.
As for `CC[C@H](C)[C@H](NC(=O)CNC(=O)[C@H](Cc1c[nH]cn1)NC(=O)[C@@H](NC(=O)[C@H](CO)NC(=O)[C@H](CCCCN(C)C)NC(=O)[C@H](CC(C)C)NC(=O)[C@H](C)NC(=O)[C@H](Cc1ccccc1)NC(=O)CNC(=O)[C@H](CCCNC(=N)N)NC(=O)[C@@H](NC(=O)[C@H](CO)NC(=O)[C@H](CCCCN(C)C)NC(=O)[C@@H](NC(=O)[C@H](C)NC(=O)[C@@H](NC(=O)[C@H](CCC(N)=O)NC(=O)[C@@H](N)CCCNC(=N)N)C(C)C)C(C)C)[C@@H](C)O)[C@@H](C)O)C(=O)N[C@@H](C)C(=O)N[C@H](C(=O)N[C@@H](CCCCN(C)C)C(=O)N[C@@H](CO)C(=O)N[C@H](C(=O)N[C@@H](CC(N)=O)C(=O)O)[C@@H](C)O)[C@@H](C)CC` [Kme2(1162,1170,1178)] (H-RQVAV[Lys(Me2)]STRGFAL[Lys(Me2)]STHGIAI[Lys(Me2)]STN-OH), the Kd turned out to be 15 ± 0.5 µM at human Cbx7 chromodomain and 180 ± 80 µM on human Cbx8 chromodomain.
In the case of `CC[C@H](C)[C@H](NC(=O)CNC(=O)[C@@H](N)Cc1c[nH]cn1)C(=O)N[C@@H](C)C(=O)N[C@H](C(=O)N[C@@H](CCCC[N+](C)(C)C)C(=O)N[C@@H](CO)C(=O)N[C@H](C(=O)N[C@@H](CC(N)=O)C(=O)O)[C@@H](C)O)[C@@H](C)CC` [IAIK(1178)S] (H-HGIAI[Lys(Me3)]STN-OH), binding on human Cbx7 chromodomain was put at a Kd of 5 ± 0.8 µM.
